Patent US9988347B2, “Herbicidally active arylcarboxylic acid amides” (BAYER CROPSCIENCE AKTIENGESELLSCHAFT, priority 2014, dated 2018)

Legend:
Format in all cases: in vivo
[1] = test system: POLCO (Polygonum convolvulus); assay: Pre-emergence herbicidal action against harmful plants; settings: dosage 320 g/ha
Source text: (§1) 1. Pre-Emergence Herbicidal Action Against Harmful Plants
(§2) Seeds of monocotyledonous and dicotyledonous weed plants and crop plants are laid out in wood-fiber pots in sandy loam and covered with soil. The compounds of the invention and, for comparative purposes, the compounds known from the prior art, formulated in the form of wettable powders (WP) or as emulsion concentrates (EC), are then applied to the surface of the covering soil as aqueous suspension or emulsion at a water application rate equating to 600 to 800 I/ha with addition of 0.2% of wetting agent. After the treatment, the pots are placed in a greenhouse and kept under good growth conditions for the trial plants. The damage to the test plants is scored visually after a test period of 3 weeks by comparison with untreated controls (herbicidal activity in percent (%): 100% activity=the plants have died, 0% activity=like control plants).

[2] = test system: CYPES (Cyperus serotinus); assay: as above; settings: dosage 320 g/ha
Source text: as §1, §2

[3] = test system: ALOMY (Alopecurus myosuroides); assay: as above; settings: dosage 320 g/ha, scored visually after 3 weeks (Table C)
Source text: as §1, §2

[4] = test system: AMARE (Amaranthus retroflexus); assay: as above; settings: 504 h, dosage 320 g/ha
Source text: as §1, §2

VERPE (Veronica persica) = assay: as above; settings: dosage 320 g/ha, scored visually after 3 weeks (Table E)
Source text: as §1, §2

[5] = test system: MATIN (Matricaria inodora); assay: as above; settings: dosage 320 g/ha, scored visually after 3 weeks (Table F)
Source text: as §1, §2

[6] = test system: LOLMU (Lolium multiflorum); assay: as above; settings: dosage 320 g/ha
Source text: as §1, §2

[7] = test system: PHBPU (Pharbitis purpureum); assay: as above; settings: dosage 320 g/ha, scored visually after 3 weeks (Table I)
Source text: as §1, §2

STEME (Stellaria media) = assay: Post-emergence herbicidal action against harmful plants; settings: dosage 80 g/ha, assessed visually after about 3 weeks (Table K)
Experimental: (§3) 2. Post-Emergence Herbicidal Action Against Harmful Plants
(§4) Seeds of monocotyledonous and dicotyledonous weed and crop plants are laid out in sandy loam in wood-fiber pots, covered with soil and cultivated in a greenhouse under good growth conditions. 2 to 3 weeks after sowing, the test plants are treated at the one-leaf stage. The compounds of the invention, formulated in the form of wettable powders (WP) or as emulsion concentrates (EC), are then sprayed onto the green parts of the plants in the form of an aqueous suspension or emulsion at a water application rate equating to 600 to 800 I/ha, with addition of 0.2% wetting agent. After the test plants have been left to stand in the greenhouse under optimal growth conditions for about 3 weeks, the action of the preparations is assessed visually in comparison to untreated controls (herbicidal action in percent (%): 100% activity=the plants have died, 0% activity=like control plants).

[8] = test system: MATIN (Matricaria inodora); assay: as above; settings: dosage 80 g/ha
Experimental: as §3, §4

[9] = test system: POLCO (Polygonum convolvulus); assay: as above; settings: dosage 80 g/ha, assessed visually after about 3 weeks (Table L)
Experimental: as §3, §4

AVEFA (Avena fatua) = assay: Pre-emergence herbicidal action against harmful plants; settings: dosage 320 g/ha, scored visually after 3 weeks vs untreated controls (100% = plants have died, 0% = like control plants)
Source text: as §1, §2

[10] = scored visually after 3 weeks (Table B)
[11] = scored visually after 3 weeks (Table C)
[12] = scored visually after 3 weeks (Table E)
[13] = scored visually after 3 weeks (Table F)
[14] = scored visually after 3 weeks (Table I)
[15] = assessed visually after about 3 weeks (Table K)
[16] = assessed visually after about 3 weeks (Table L)
[17] = scored visually after 3 weeks vs untreated controls (100% = plants have died, 0% = like control plants)

## CSc1c(I)ccc(C(=O)Nc2nnnn2C)c1C
[1]; [10]
  Activity against POLCO: 20%
[2]; [10]
  Activity against CYPES: 0%

## CSc1c(N(C)C)ccc(C(=O)Nc2nnnn2C)c1C
[1]; [10]
  Activity against POLCO: 0%
[2]; [10]
  Activity against CYPES: 30%

## COSc1c(C2CC2)ccc(C(=O)Nc2nnnn2C)c1C
[3]
  Activity against ALOMY: 90%
[4]; [11]
  pest or weed control at 320 g/ha: 100%

## CSc1c(C2CC2)ccc(C(=O)Nc2ncnn2C)c1C
VERPE (Veronica persica)
  Activity against VERPE: 90%
[4]; [12]
  pest or weed control at 320 g/ha: 100%

## CSc1c(C#N)ccc(C(=O)Nc2ncnn2C)c1C
VERPE (Veronica persica)
  Activity against VERPE: 70%
[4]; [12]
  pest or weed control at 320 g/ha: 80%

## CSc1c(I)ccc(C(=O)Nc2ncnn2C)c1C
VERPE (Veronica persica)
  Activity against VERPE: 0%
[4]; [12]
  pest or weed control at 320 g/ha: 60%

## CSc1c(C=O)ccc(C(=O)Nc2ncnn2C)c1C
VERPE (Veronica persica)
  Activity against VERPE: 0%
[4]; [12]
  pest or weed control at 320 g/ha: 30%

## CSc1c(C2OCCO2)ccc(C(=O)Nc2ncnn2C)c1C
VERPE (Veronica persica)
  Activity against VERPE: 0%
[4]; [12]
  pest or weed control at 320 g/ha: 0%

## COSc1c(C2CC2)ccc(C(=O)Nc2ncnn2C)c1C
[5]
  Activity against MATIN: 80%
[4]; [13]
  pest or weed control at 320 g/ha: 90%

## COSc1c(Cl)ccc(C(=O)Nc2ncnn2C)c1C
[5]
  Activity against MATIN: 30%
[4]; [13]
  pest or weed control at 320 g/ha: 70%

## COSc1c(C#N)ccc(C(=O)Nc2ncnn2C)c1C
[5]
  Activity against MATIN: 0%
[4]; [13]
  pest or weed control at 320 g/ha: 60%

## COSc1c(C=O)ccc(C(=O)Nc2ncnn2C)c1C
[5]
  Activity against MATIN: 0%
[4]; [13]
  pest or weed control at 320 g/ha: 40%

## COSc1c(C2OCCO2)ccc(C(=O)Nc2ncnn2C)c1C
[5]
  Activity against MATIN: 0%
[4]; [13]
  pest or weed control at 320 g/ha: 20%

## CCn1nnnc1NC(=O)c1ccc(C2CC2)c(SOC)c1C
[6]; [14]
  Activity against LOLMU: 100%
[7]
  Activity against PHBPU: 100%

## CCn1nnnc1NC(=O)c1ccc(C)c(SOC)c1C
[6]; [14]
  Activity against LOLMU: 30%
[7]
  Activity against PHBPU: 60%

## CSc1c(C2CC2)ccc(C(=O)Nc2ncc(C)o2)c1C
STEME (Stellaria media)
  Activity against STEME: 90%
[8]; [15]
  Activity against MATIN: 80%

## CSc1c(Cl)ccc(C(=O)Nc2nnc(C)o2)c1C
STEME (Stellaria media)
  Activity against STEME: 70%
[8]; [15]
  Activity against MATIN: 60%

## CSc1c(Br)ccc(C(=O)Nc2nnc(C)o2)c1C
STEME (Stellaria media)
  Activity against STEME: 60%
[8]; [15]
  Activity against MATIN: 40%

## CSc1c(C2CC2)ccc(C(=O)Nc2nnc(C)o2)c1C
[9]
  Activity against POLCO: 60%
[8]; [16]
  Activity against MATIN: 80%

## CSc1c(I)ccc(C(=O)Nc2nnc(C)o2)c1C
[9]
  Activity against POLCO: 20%
[8]; [16]
  Activity against MATIN: 60%

## CSc1c(C(F)(F)F)ccc(C(=O)Nc2nnc(C)o2)c1C
[9]
  Activity against POLCO: 0%
[8]; [16]
  Activity against MATIN: 60%

## CCn1nnnc1NC(=O)c1ccc(C2CC2)c(SC)c1C
[6]; [17]
  Activity against LOLMU: 90%
AVEFA (Avena fatua)
  Activity against AVEFA: 100%

## CSc1c(C2CC2)ccc(C(=O)Nc2nnnn2C)c1C [drawing 18]
[1]; [17]
  Activity against POLCO: 90%
[2]; [17]
  Activity against CYPES: 90%

## CSc1cccc(C(=O)Nc2nnnn2C)c1C [drawing 19, reference compound]
[1]; [17]
  Activity against POLCO: 0%
[2]; [17]
  Activity against CYPES: 30%

## CSc1c(C2CC2)ccc(C(=O)Nc2nnnn2C)c1C [drawing 21]
[1]; [10]
  Activity against POLCO: 90%
[2]; [10]
  Activity against CYPES: 90%

## CSc1c(C2OCCO2)ccc(C(=O)Nc2nnnn2C)c1C [drawing 24]
[1]; [10]
  Activity against POLCO: 30%
[2]; [10]
  Activity against CYPES: 0%

## CSc1c(C=O)ccc(C(=O)Nc2nnnn2C)c1C [drawing 25]
[1]; [10]
  Activity against POLCO: 0%
[2]; [10]
  Activity against CYPES: 0%

## CSc1cccc(C(=O)Nc2nnnn2C)c1C [drawing 27]
[3]
  Activity against ALOMY: 20%
[4]; [11]
  pest or weed control at 320 g/ha: 20%

## CSc1c(C2OCCO2)ccc(C(=O)Nc2nnnn2C)c1C [drawing 28]
[3]
  Activity against ALOMY: 0%
[4]; [11]
  pest or weed control at 320 g/ha: 0%

## CSc1c(C=O)ccc(C(=O)Nc2nnnn2C)c1C [drawing 29]
[3]
  Activity against ALOMY: 0%
[4]; [11]
  pest or weed control at 320 g/ha: 0%

## CSc1c(Br)ccc(C(=O)Nc2nnnn2C)c1C [reference compound]
[1]; [17]
  Activity against POLCO: 70%
[2]; [17]
  Activity against CYPES: 0%

## CCn1nnnc1NC(=O)c1ccc(C)c(SC)c1C [reference compound]
[6]; [17]
  Activity against LOLMU: 30%
AVEFA (Avena fatua)
  Activity against AVEFA: 60%
